In publication PMC7737769, “Pharmacological inhibition of syntenin PDZ2 domain impairs breast cancer cell activities and exosome loading with syndecan and EpCAM cargo” (Journal of Extracellular Vesicles, 2020):

Key:
[1] = biological target: T1, syntenin‐PDZ tandem (without C‐terminal domain) (Homo sapiens, UniProt O00560); test: Surface plasmon resonance (BIAcore), syntenin PDZ tandem; assay type: binding; details: compound in PBS, read-out: apparent KD, syntenin‐PDZ tandem (without C‐terminal domain)
T1 construct: made in house; host or cells: Biotin XCell F' E. coli cells
T1 sequence (O00560 107-275): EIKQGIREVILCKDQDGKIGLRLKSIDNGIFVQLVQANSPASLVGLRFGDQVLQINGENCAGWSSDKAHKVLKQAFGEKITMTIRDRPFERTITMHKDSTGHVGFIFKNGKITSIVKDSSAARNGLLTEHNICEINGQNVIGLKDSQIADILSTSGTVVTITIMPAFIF
Protocol: All SPR experiments were conducted with a BIAcore T200 instrument (GE Healthcare), at 25°C. A total of 8000 resonance units (RU) of biotinylated ligands (N‐terminal 6xHis tagged biotinylated syntenin tandem, syntenin tandem with C terminus, GRASP55 tandem or GST as control) were immobilized on a streptavidin‐sensor chip (GE Healthcare). Analytes (C58 and SyntOFF compounds) were perfused at 30 µl per min in running buffer (10 mM HEPES pH 7.4, 150 mM NaCl, 0.005% Tween20) at different concentrations. The reference channel was N‐terminal 6xHis tagged biotinylated GST protein. The injection time was 240 s, long enough for the sensorgrams to reach equilibrium, and the dissociation time was 240 s. To carry out these SPR experiments, we employed the method known as ‘single‐cycle kinetics’ described in 2006 by Karlsson and co‐workers (Karlsson, Katsamba, Nordin, Pol, & Myszka, 2006). It consists in injecting the analyte at increasing concentrations, without regeneration steps between each sample injection to avoid that folded‐proteins can be damaged after regeneration steps. Equilibrium dissociation constants (KD) were calculated by fitting the data to a simple Langmuir binding isotherm using GraphPad Prism. For determination of the apparent KD, signals obtained at equilibrium were plotted as a function of compound concentration. […]

[2] = tested on: MCF‐7 cells (exosomal markers); test: Western blot of exosomal fractions (exosome cargo); assay type: cell-based; details: CAY10594 10 µM, 16 h
Protocol: For comparative analyses, exosome‐enriched fractions were collected from equivalent amounts of culture medium, conditioned by equivalent amounts of cells. MCF‐7 cells were treated with indicated compounds or with DMSO 0.2% as control, in medium containing exosome‐depleted FCS (10%). After 16 h, cell media were collected and exosomes were isolated by three sequential centrifugation steps at 4 °C: 10 min at 500 × g, to remove cells; 30 min at 10,000 × g, to remove cell debris; and 1h30min at 100,000 × g, to pellet exosomes (exosome‐enriched fraction), followed by one wash with 1400 µl of PBS1X (100,000 × g, 1 h), to remove soluble serum and secreted proteins. Exosomal pellets were then re‐suspended in 100 µl of PBS1X. The lysates from corresponding cultures were cleared by centrifugation at 1500 rpm for 5 min and then resuspended in lysis buffer (TrisHCL pH 7.4 30 mM, NaCl 150 mM, 1% NP40 (IGEPAL), 1 µg/ml aprotinin, 1 µg/ml leupeptin). Although only little variations were observed from sample to sample, exosomal amounts loaded for the western blot were normalized according to the number of parent cells from where exosomes were secreted.
The proteins were heat‐denaturated in Laemmli sample buffer, fractionated in 12.5% or 15% gels by SDS–PAGE and electro‐transferred to nitrocellulose membrane. Membranes were stained with Ponceau red and immunoblotted with the indicated primary antibodies for: CD9 (1/5000), CD63 (1/5000), CD81 (1/5000) and ADAM10 (1/1000) antibodies provided by E. Rubinstein (Charrin et al., 2001) (Université Paris‐Sud UMRS_935, Villejuif); syntenin (Homemade (Kashyap et al., 2015); 1/3000), Tubulin (Sigma‐Aldrich; 1/10,000), ALIX (Homemade (Baietti et al., 2012); 1/500), HSP70 (Santa Cruz Biotechnology; 1/500), Flotillin‐1 (BD Biosciences; 1/1000), EGFR (Cell Signaling; 1/1000), EpCAM (Santa Cruz Biotechnology; 1/200), Fibronectin (BD Biosciences; 1/5000), Src (Cell signaling; 1/1000), TSP1 (Lab Vision; 1/100), SDC1 intracellular domain (Homemade (Baietti et al., 2012); 1/1000), SDC4 intracellular domain (Abnova; 1/2000), and HRP‐conjugated secondary antibodies (Mouse or Rabbit, Thermofisher scientific; 1/10,000). Signals were visualized using Amersham ECL Prime Western Blotting Detection Reagent (GE Healthcare).

MCF‐7 SyntKO cells = test: Mammosphere formation assay, MCF-7 SyntKO; assay type: cell-based; details: 100 µM
Protocol: MCF‐7 and MCF‐7 SyntKO cells were treated with increasing concentrations of compounds C58, SyntOFF (50‐100µM) or DMSO 0.2% as control. After 24 h, cells were trypsinized, re‐suspended in normal growth media and washed three times in PBS to remove serum. Cell concentration was determined using the LUNA-FL Automated Fluorescence Cell Counter (Logos Biosystem) and cells were then seeded at 1000 cells/ml in 6‐well Ultra low Adherence plates (Corning Inc., Corning, NY) in MEBM medium (Lonza) supplemented with 5 µg/ml insulin (Sigma‐Aldrich), 20 ng/ml recombinant epidermal growth factor (Sigma‐Aldrich), 1X of B27 supplement (Invitrogen, Carlsbad, CA, USA), 0.5 µg/ml hydrocortisone (Sigma‐Aldrich), 1X of β‐mercaptoethanol and 1% penicillin/streptomycin (Gibco). Fresh medium was added into the plates every 3–4 days. The number of spheres (diameter > 50 µm) was evaluated under microscope on days 7–10. Sphere formation was calculated as the number of spheres divided by the original number of cells seeded and normalized to control.

SMILES	Kd [1] [mM]	exosomal ADAM10 signal ([2]; SyntOFF 100 µM)	exosomal CD81 ([2]; SyntOFF 100 µM)	exosomal EGFR signal ([2]; SyntOFF 100 µM)	exosomal TSP1 signal ([2]; SyntOFF 100 µM)	exosomal fibronectin signal ([2]; SyntOFF 100 µM)	incorporation of EpCAM into exosomes ([2]; SyntOFF 100 µM)	incorporation of c‐Src into exosomes ([2]; SyntOFF 100 µM)	amount of exosomal ALIX ([2]; cSyntOFF, C58, SyntOFF 100 µM)	amount of exosomal SDC4 C‐terminal fragment (CTF) ([2]; cSyntOFF, C58, SyntOFF 100 µM)	amount of exosomal syntenin ([2]; cSyntOFF, C58, SyntOFF 100 µM)	mammosphere formation (MCF‐7 SyntKO cells)
CC(C)[C@H](NC(=O)CSc1ccc(Cl)cc1)C(=O)O [Compound C58]	1.03	–	–	–	–	–	–	–	–	–	–	–
CC(C)[C@H](NC(=O)CCSc1ccc(Cl)cc1)C(=O)O [SyntOFF, (S)‐2‐(3‐(4‐chlorophenylthio)propanamido)‐3‐methylbutanoic acid]	–	unaffected	that was not the case	unaffected	unaffected	unaffected	markedly decrease	markedly decrease	significantly decreased	significantly decreased	significantly decreased	no effect
